Consider two compounds from US8415371B2, “Methods and kits for treating cluster headache disorders” (priority 2008, dated 2013).

The test system of data set [1] is treatment-refractory cluster headache patients. In words: Side effects, consciousness, thought disturbances and vital signs observed three to four hours after bromolysergide administration (Example 3). It is filed as in vivo, human. The source says:
(§1) Patients referred to the Pain Clinic at the Hannover Medical School were identified with cluster headache if they met the respective diagnostic criteria of the international classification of headache disorders (Headache Classification Committee of the International Headache Society (2004) The International Classification of Headache Disorders, 2nd edn. Cephalalgia 24 Suppl 1:1-160). In addition, all patients were non-responders to verapamil and other prophylactic medications (i.e., refractory to the prophylactic medications listed in Table 1 for each patient). In accordance with German national and local ethics committee rules, all patients signed an informed consent, in which the patients declared their agreement to participate in this project on the compassionate use of bromolysergide for cluster headache. Patients kept a standardized daily diary of cluster headache symptoms starting at least two weeks prior to bromolysergide administration. Bromolysergide (hydrochloride salt) was manufactured by THCpharm GmbH (Frankfurt am Main, Germany). A purity of >99.2% was identified by HPLC and other analytical tests. Bromolysergide hydrochloride 30 μg per Kg body weight was dissolved into distilled water and then given once every 5 days for a total of 3 doses per os. Alterations in consciousness, thought disturbances, and vital signs (blood pressure, heart rate) were measured during a three to four hour observational period following administration. Patients were asked to continue completing daily headache diaries for the next months or until they experience 3 days of attacks of a starting new cluster series.

The test system of data set [2] is subjects diagnosed with chronic cluster headache disorder. Kind of data set: Treatment of chronic cluster headache disorder with bromolysergide, two adult subjects (Example 1). It is filed as in vivo, human. As to conditions: once every five days. Here is the method:
The desired amount of bromolysergide (hydrochloride salt) was mixed with dextrose and placed into gelatin capsules for administration to subjects suffering from chronic cluster headache disorder.
Bromolysergide was administered to two adult subjects diagnosed with chronic cluster headache disorder during a cluster period. A dose of 2 mg of 2-bromolysergic acid dethylamide (30 μg/kg body weight) was administered orally to subject 1 three times, once every five days. A dose of 2.5 mg of 2-bromolysergic acid dethylamide (approximately 30 μg/kg body weight) was administered orally to subject 2 three times, once every five days.
Subjects were asked to rate their symptoms following administration of bromolysergide.

For data set [3], the system named is treatment-refractory cluster headache patients. In words: Compassionate use of bromolysergide in treatment-refractory cluster headache patients, daily headache diary (Example 3). As to conditions: for continuous period of attack quiescence: indicates transition from chronic to episodic form. It is filed as in vivo, human.
Description: as §1

The conditions of data set [4]: cited from earlier work.
For data set [5] the following is noted: daily prophylactic administration over time; rare; cited from earlier work.
[6] abbreviates: subject 1, 2 mg (30 μg/kg) orally three times, for ten weeks.
Setting [7] is: subject 2, 2.5 mg orally three times.

Entries after “also recorded” stand apart in the source; their conditions may differ.

Regarding `CCN(CC)C(=O)[C@@H]1C=C2c3cccc4[nH]c(Br)c(c34)C[C@H]2N(C)C1` [bromolysergide, 2-bromolysergic acid diethylamide], the “duration of side effect” value in data set [1] (each of the five subjects, 30 μg/kg per os) was “about 2 hours”. For the same compound, in data set [1] (five patients, during bromolysergide treatment), the “changes to heart rate and blood pressure” value is listed as “No changes”. Further, the “duration of mild subjective effects” value in data set [1] (five patients, 30 μg/kg per os) was “one to two”. Moreover, in data set [1] (five patients, 30 μg/kg per os), the “hallucinogenic or psychotic effects” value is listed as “No visual hallucinations or distortions occurred nor was there any evidence of delusional thinking or overt psychosis; also recorded: non-hallucinogenic”. Also, the other side effects result in data set [1] (five patients, apart from very mild alterations of subjective state and mild to no sympathetic reactions) is “no other side effects were observed”. In data set [1] (most of the patients, 30 μg/kg per os), the subjective feelings recorded result is ““flabby” or “light drunk” feelings”. For the same compound, in data set [1] (patient S2, 30 μg/kg per os), the subjective effects noted result is ““funny” feeling, tense muscles, and sweating of their hands”. For the same compound, the Vital signs result was “unchanged” in data set [1] (subject S1, 2.5 mg ×3); “unchanged” in data set [1] (subject S2, 2.0 mg ×3); “unchanged” in data set [1] (subject S3, 3.1 mg ×3); “unchanged” in data set [1] (subject S4, 3.1 mg ×3); “unchanged” in data set [1] (subject S5, 2.2 mg ×3). The Side effects result is on record as ““flabby” in data set [1] (subject S1, 2.5 mg ×3, cell wraps into r25: “flabby feeling”); ““funny” in data set [1] (subject S2, 2.0 mg ×3, cell wraps into r25: “funny feeling”); ““slightly” in data set [1] (subject S3, 3.1 mg ×3); ““slightly” in data set [1] (subject S4, 3.1 mg ×3); ““slightly” in data set [1] (subject S5, 2.2 mg ×3). Further, the “rating of results (Clinical Global Impressions Scale)” value is on record as “minimally improved” in data set [2] (subject 1, chronic cluster headache, 2 mg (30 μg/kg) orally three times) and “marked/very much improved” in data set [2] (subject 2, chronic cluster headache for more than 6 years, 2.5 mg (approximately 30 μg/kg) orally three times). In data set [2] (subject 1, 2 mg (30 μg/kg) orally three times), the “duration of improvement before reverting to pre-treatment form” value is reported as “ten”. The reduction in pain in data set [2] (setting [6]) turned out to be 30%. The “reduction of attack frequency” value in data set [2] (setting [6]) turned out to be 30%. In addition, the “International Headache Society criteria for chronic cluster headache disorder after treatment” value in data set [2] (setting [7]) was “no longer met criteria”. For the same compound, the remission of symptoms result in data set [2] (setting [7]) is listed as “complete or nearly complete remission of symptoms”. Besides, the “time free of attacks” value in data set [2] (subject 2, 2.5 mg orally three times, at last follow-up) is given as “more than 3 months”. In data set [3] (five treatment-refractory patients, three single doses of 30 μg/kg within 10 days, FIG. 1), the “overall effect on cluster headache cycle, frequency and intensity of attacks” value was “can either break a cluster headache cycle or considerably improve the frequency and intensity of attacks; also recorded: quite effective at breaking cluster headache cycle; also recorded: can break a cluster headache cycle, convert a chronic cluster headache disorder into an episodic cluster headache disorder, and extend the remission period”. The attack frequency result is given as “did not show this pronounced attack reduction” in data set [3] (patient S1, chronic form, 30 μg/kg per os ×3); “pronounced reduction of attack frequency” in data set [3] (patient S3, chronic form, 30 μg/kg per os ×3); “profound reduction of attack frequency” in data set [3] (patient S4, chronic form, 30 μg/kg per os ×3); “pronounced reduction of attack frequency” in data set [3] (patient S5, chronic form, 30 μg/kg per os ×3). In addition, the “decrease of attack intensity” value in data set [3] (patient S1, chronic form, 30 μg/kg per os ×3, within the first 4 months, continued to drink alcohol) is reported as “about 30%”. Also, the “outcome of cluster period” value in data set [3] (patient S2, episodic form, 30 μg/kg per os once every 5 days, 3 doses) was “termination of their cluster period”. In addition, the remission period result in data set [3] (patient S2, episodic form, 30 μg/kg per os ×3, at last follow-up and continuing) is “six”. Also, the “pain intensity during remaining occasional attacks” value in data set [3] (patient S3, 30 μg/kg per os ×3) is “such reductions of pain intensity during their remaining occasional attacks that they no longer administered an acute intervention”; in data set [3] (patient S4, 30 μg/kg per os ×3) it was “such reductions of pain intensity during their remaining occasional attacks that they no longer administered an acute intervention”. In addition, the “continuous period of attack quiescence” value is on record as “greater than 4 week” in data set [3] (patient S3, 30 μg/kg per os ×3) and “greater than 4 week” in data set [3] (patient S5, 30 μg/kg per os ×3). Also, in data set [3] (patient S4, 30 μg/kg per os ×3), the “continuous break of attacks” value is recorded as “did not show a continuous 4-week break of attacks”.
`CC[C@@H](CO)NC(=O)[C@@H]1C=C2c3cccc4c3c(cn4C)C[C@H]2N(C)C1` [methysergide]: the “dose estimated to be equivalent to 25 micgrograms LSD” value in data set [4] (Abrahamson et al., J. Asthma Res. 3:81 (1965)) is recorded as “ca. 4 mg”. Moreover, the hallucinogenic effect result in data set [4] (supra-therapeutic doses) is “hallucinogenic”. In data set [5], the “serious medical complication in the longstanding user” value was “fibrotic reactions (retroperitoneal, pulmonary, pleural, and cardiac)”.
